Patent US20110230478A1 (Bayer ScienceCrop AG, priority 2008, published 2011)
Read-outs that look alike come from different tables or passages of the source. Each block holds one molecule with its values, some of them ahead of it.

Assay: logP by HPLC on reversed-phase columns (C 18), EEC Directive 79/831 Annex V.A8
Type: physicochemical
Conditions: for logP [a]: pH 2.3, 0.1% aqueous phosphoric acid and acetonitrile
[1] = values marked [b], footnote not given
[2] = values marked [c], footnote not given
[3] = reversed-phase HPLC column (C 18), pH 2.3, pH 2.3, 0.1% aqueous phosphoric acid and acetonitrile, read-out: logP [a]
[4] = method marker [a], footnote not given
[5] = method marker [b], footnote not given, compound 68 value matches logP (pH 2.3)
[6] = method marker [b] (compound 257: pH2.7)

logP [1]: 2.26[b]
SMILES: COCC(C)Nc1nc(Nc2ccc(CC(=O)C(C)(C)C)cc2)ncc1Cl (stereo not drawn) [Example 151]

logP [1]: 2.18[b] | logP [2]: 3.44[c];
SMILES: CC(C)Nc1nc(Nc2cccc(CS(=O)(=O)N(C)C(C)C)c2)ncc1Cl [Example 242]

chromatographic logP [3]: 2.93
SMILES: CC(C)CNc1nc(Cl)ncc1Cl [Example V-29, 2,5-dichloro-N-(2-methylpropyl)pyrimidine-4-amine]

logP [4]: 2.47[a]; | logP (method marker [c], footnote not given): 3.3[c]
SMILES: COC(=O)c1ccc(Nc2ncc(Cl)c(N(C)C)n2)cc1 [Example 39]

logP [1]: 1.93[b]
SMILES: CC(C)Nc1nc(Nc2ccc(NC(=O)C(F)(F)F)cc2)ncc1Cl [Example 193]

logP [5]: 1.46[b]
SMILES: COCC(C)Nc1nc(Nc2ccc(OC)c(OC)c2)ncc1Cl (stereo not drawn) [Example 84]

logP (method marker [a]): 2.54[a]
SMILES: CS(=O)(=O)c1ccc(Nc2ncc(Cl)c(NC3CCCCC3)n2)cc1 [Example 267]

logP [1]: 2.23[b]
SMILES: COCC(C)Nc1nc(Nc2cccc(NC(=O)Oc3ccccc3)c2)ncc1Cl (stereo not drawn) [Example 165]

chromatographic logP (pH 2.3, logP [a]): 2.26
SMILES: COCC(C)Nc1nc(Cl)ncc1Br (stereo not drawn) [Example V-2, 5-bromo-2-chloro-N-(3-methoxypropan-2-yl)pyrimidine-4-amine]

chromatographic logP (pH 2.3, logP [a]): 3.16
SMILES: Clc1ncc(Cl)c(NC2CCCC2)n1 [Example V-12, 2,5-dichloro-N-(cyclopentyl)pyrimidine-4-amine]

logP [6]: 2.3[b] | logP (method marker [c]): 3.87[c];
SMILES: CCCNc1nc(Nc2cccc(SC)c2)ncc1Cl [Example 284]

logP [1]: 1.63[b]
SMILES: CC(C)Nc1nc(Nc2ccc3cc[nH]c3c2)ncc1Cl [Example 215]

logP [6]: 2.32[b] | logP (method marker [c]): 3.57[c];
SMILES: CC(C)Nc1nc(Nc2cccc(CS(=O)(=O)NC(C)c3ccccc3)c2)ncc1Cl (stereo not drawn) [Example 248]

logP [1]: 1.63[b]
SMILES: COc1ccc(Nc2ncc(Cl)c(NC(C)C)n2)cc1 [Example 183]

SMILES: Cc1cccc(Nc2ncc(Cl)c(NC(C)C)n2)c1 [Example 229]
logP [1]: 2[b] | logP [2]: 3.84[c];

logP [5]: 3.14[b]
SMILES: COCC(C)Nc1nc(Nc2ccc(C(=O)OC)c(Cl)c2)ncc1Br (stereo not drawn) [Example 115]

logP [a]: 0.58[a]
SMILES: COCC(C)Nc1nc(Nc2ccc(O)nc2)ncc1Br (stereo not drawn) [II-4]

logP [1]: 1.86[b]
SMILES: CC(C)Nc1nc(Nc2ccc(S(C)(=O)=O)cc2)ncc1Cl [Example 186]

logP (values marked [a], pH 2.3): 1.04[a]
SMILES: CC(CO)Nc1nc(Nc2ccccc2)ncc1Cl (stereo not drawn) [Example 223]

chromatographic logP (pH 2.3, logP [a]): 2.94
SMILES: CCC(C)Nc1nc(Cl)ncc1Cl (stereo not drawn) [Example V-14, 2,5-dichloro-N-(butan-2-yl)pyrimidine-4-amine]

logP [4]: 2.18[a]
SMILES: COCC(C)Nc1nc(Nc2ccc(S(=O)(=O)N3CCOCC3)cc2)ncc1Cl (stereo not drawn) [Example 63]

logP [6]: 1.7[b]
SMILES: CC(C)Nc1nc(Nc2cccc(Cn3cccn3)c2)ncc1Cl [Example 298]

logP [6]: 3.18[b]
SMILES: CN(C)S(=O)(=O)c1ccc(Nc2ncc(Cl)c(NC3CCCCC3)n2)cc1 [Example 263]

logP [4]: 1.96[a]
SMILES: CCC(CO)Nc1nc(Nc2cccc(Cl)c2)ncc1Cl (stereo not drawn) [Example 17]

logP [6]: 2.77[b]
SMILES: COc1cc(Nc2ncc(Cl)c(NC3CCCCC3)n2)cc(OC)c1 [Example 260]

logP [6]: 0.7[b] | logP (method marker [c]): 1.83[c];
SMILES: OCCNc1nc(Nc2ccccc2)ncc1Cl [Example 285]

logP [4]: 1.68[a]
SMILES: C=CCNc1nc(Nc2ccccc2)ncc1Cl.Cl [Example 66]

chromatographic logP (pH 2.3, logP [a]): 1.93
SMILES: CCNc1nc(Cl)ncc1Cl [Example V-20, 2,5-dichloro-N-ethylpyrimidine-4-amine]

logP [5]: 3.99[b]
SMILES: COCC(C)Nc1nc(Nc2ccc(OC(F)(F)F)c(Cl)c2)ncc1Cl (stereo not drawn) [Example 98]

chromatographic logP [3]: 3.47
SMILES: Clc1ncc(Cl)c(NC2CCCCC2)n1 [Example V-18, 2,5-dichloro-N-cyclohexylpyrimidine-4-amine]

logP [6]: 2.66[b]
SMILES: CC(Nc1nc(Nc2ccccc2)ncc1Cl)[Si](C)(C)C (stereo not drawn) [Example 291]

logP [1]: 1.68[b]
SMILES: COCC(C)Nc1nc(Nc2cccc(NC(=O)c3ccco3)c2)ncc1Cl (stereo not drawn) [Example 168]

logP [4]: 1.77[a]
SMILES: CC(C)Nc1nc(Nc2ccccc2)ncc1Cl [Example 36]

logP (values marked [a], pH 2.3): 3.45[a]; | logP [2]: 4.64[c]
SMILES: CSc1cccc(Nc2ncc(Cl)c(N(C)C(C)C)n2)c1 [Example 219]

logP [1]: 1.38[b] | logP [2]: 3.03[c];
SMILES: CCNc1nc(Nc2ccccc2)ncc1Cl [Example 240]

logP [1]: 2.33[b]
SMILES: COCC(C)Nc1nc(Nc2ccc(C)c(SC)c2)ncc1Cl (stereo not drawn) [Example 154]

logP [5]: 1.56[b]
SMILES: COCC(C)Nc1nc(Nc2ccc(N(C)C(C)=O)cc2)ncc1Br (stereo not drawn) [Example 119]

logP [1]: 1.61[b]
SMILES: CC(=O)Nc1ccc(Nc2ncc(Cl)c(NC(C)C)n2)cc1Cl [Example 190]

logP [6]: 2.69[b]
SMILES: CSc1cccc(Nc2ncc(Cl)c(NCC(C)C)n2)c1 [Example 283]

logP [1]: 2.8[b]
SMILES: COCC(C)Nc1nc(Nc2ccc(SC(F)F)cc2)ncc1Cl (stereo not drawn) [Example 172]

SMILES: CC(=O)Cc1cccc(Nc2ncc(Cl)c(NC3CCCC3)n2)c1 [Example 255]
logP [6]: 2.01[b]

logP [5]: 1.75[b]
SMILES: COCC(C)Nc1nc(Nc2cccc(CC(=O)OC)c2)ncc1Cl (stereo not drawn) [Example 93]

logP [1]: 1.8[b] | logP [2]: 2.75[c];
SMILES: COCC(C)Nc1nc(Nc2cccc(C=O)c2)ncc1Cl (stereo not drawn) [Example 244]

logP [4]: 1.48[a]
SMILES: CC(C)Oc1ccc(Nc2ncc(Cl)c(NCCO)n2)cc1.Cl [Example 59]

chromatographic logP [3]: 2.66
SMILES: N#Cc1cnc(Nc2ccccc2)nc1Cl [VIII-3, 4-Chloro-2-(phenylamino)pyrimidine-5-carbonitrile]

chromatographic logP [3]: 1.08
SMILES: CC(C)N(C)S(=O)(=O)Cc1cccc(N)c1 [IV-6, 1-(3-aminophenyl)-N-methyl-N-(propan-2-yl)methanesulphonamide]

chromatographic logP [3]: 1.65
SMILES: CCC(CO)Nc1nc(Cl)ncc1Cl (stereo not drawn) [Example V-4, 2,5-dichloro-N-(1-hydroxybutan-2-yl)pyrimidine-4-amine]

logP (method marker [a]): 1.69[a]
SMILES: CCN(CC)c1ccc(Nc2ncc(Cl)c(NC3CCCCC3)n2)cc1 [Example 265]

logP [5]: 2.36[b]
SMILES: CN(C)c1nc(Nc2ccccc2)ncc1C#N [Example 44]

logP [1]: 1.98[b]
SMILES: COCC(C)Nc1nc(Nc2cccc(C)c2)ncc1Cl (stereo not drawn) [Example 225]

SMILES: CNC(=O)Oc1cccc(Nc2ncc(Cl)c(NC(C)COC)n2)c1 (racemic) [Example 144]
logP [1]: 1.48[b]

chromatographic logP (pH 2.3, logP [a]): 1.27
SMILES: N#CCNc1nc(Cl)ncc1Cl [Example V-8, [(2,5-dichloropyrimidin-4-yl)amino]acetonitrile]

logP [6]: 2.18[b] | logP (method marker [c]): 3.35[c];
SMILES: CC(C)Nc1nc(Nc2cccc(CS(=O)(=O)NCc3ccccc3)c2)ncc1Cl [Example 251]

logP [4]: 1.53[a]
SMILES: CCC(CO)Nc1nc(Nc2cccc(C(C)=O)c2)ncc1Cl (stereo not drawn) [Example 21]

logP [4]: 2.5[a]
SMILES: CC(=O)c1cccc(Nc2ncc(Cl)c(N(C)C(C)C)n2)c1.Cl [Example 45]

logP [4]: 2.25[a]; | logP [5]: 2.26[b] | logP [a]: 2.25
SMILES: COCC(C)Nc1nc(Nc2ccc(S(=O)(=O)N(C)C)cc2)ncc1Cl (stereo not drawn) [Example 16]

logP [6]: 2.41[b]
SMILES: CCCCCNc1nc(Nc2ccccc2)ncc1Cl [Example 278]

logP [5]: 2.11[b]
SMILES: COCC(C)Nc1nc(Nc2ccc3oc(=O)sc3c2)ncc1Cl (stereo not drawn) [Example 106]

logP [6]: 2.37[b]
SMILES: CC(C)CCNc1nc(Nc2ccccc2)ncc1Cl [Example 277]

logP [1]: 1.86[b]
SMILES: CN(C)c1nc(Nc2ccccc2)ncc1Br [Example 178]

logP [5]: 2.95[b]
SMILES: COCC(C)Nc1nc(Nc2ccc(C(=O)OC)c(Cl)c2)ncc1Cl (stereo not drawn) [Example 95]

chromatographic logP [3]: 2.91
SMILES: CCCCNc1nc(Cl)ncc1Cl [Example V-16, N-(butan-1-yl)-2,5-dichloropyrimidine-4-amine]

logP [1]: 1.59[b]
SMILES: COC(=O)Nc1cccc(Nc2ncc(Cl)c(NC(C)C)n2)c1 [Example 204]

logP [1]: 1.78[b]
SMILES: COCC(C)Nc1nc(Nc2ccc(NC(=O)C(C)(C)C)cc2)ncc1Cl (racemic) [Example 146]

logP [1]: 1.66[b]
SMILES: CCOC(=O)Nc1ccc(Nc2ncc(Cl)c(NC(C)C)n2)cc1 [Example 202]

logP [4]: 1.49[a]; | logP [5]: 1.49[b]
SMILES: COCCNc1nc(Nc2cccc(C(C)=O)c2)ncc1Cl [Example 5]

logP [4]: 2.45[a]
SMILES: CC(C)N(C)c1nc(Nc2ccccc2)ncc1Cl.Cl [Example 46]

logP [5]: 2.26[b]
SMILES: COCC(C)Nc1nc(Nc2cccc(C#N)c2)ncc1Br (stereo not drawn) [Example 108]

logP [5]: 3.22[b]
SMILES: COCC(C)Nc1nc(Nc2ccc(C(F)(F)F)cc2)ncc1Cl (stereo not drawn) [Example 82]

logP [5]: 1.99[b]
SMILES: COCC(C)Nc1nc(Nc2ccc(-c3cscn3)cc2)ncc1Br (stereo not drawn) [Example 112]

logP [4]: 1.78[a]; | logP [5]: 1.73[b]
SMILES: CN(C)c1nc(Nc2ccccc2)ncc1Cl [Example 33]

logP [5]: 1.55[b]
SMILES: COCC(C)Nc1nc(Nc2ccc3c(c2)CCN3C(C)=O)ncc1Br (stereo not drawn) [Example 79]

logP [1]: 1.78[b]
SMILES: CCOC(=O)Nc1cccc(Nc2ncc(Cl)c(NC(C)COC)n2)c1 (racemic) [Example 143]

logP [1]: 1.61[b]
SMILES: CC(C)Nc1nc(Nc2ccc(NC(=O)C(C)C)cc2)ncc1Cl [Example 209]

logP [4]: 1.94[a]
SMILES: COCC(C)Nc1nc(Nc2cc(OC)cc(OC)c2)ncc1Cl (stereo not drawn) [Example 14]

logP [4]: 2.02[a]; | logP [5]: 2.18[b]
SMILES: COCC(C)Nc1nc(Nc2cccc(S(=O)(=O)N(C)C)c2)ncc1Cl (stereo not drawn) [Example 31]

logP [5]: 1.71[b]
SMILES: COCC(C)Nc1nc(Nc2ccc(CC(=O)OC)cc2)ncc1Cl (stereo not drawn) [Example 91]

chromatographic logP [3]: 2.35
SMILES: CC(C)N(C)S(=O)(=O)Cc1cccc([N+](=O)[O-])c1 [IV-2, N-methyl-N-(propan-2-yl)-1-(3-nitrophenyl)methanesulphonamide]

chromatographic logP [3]: 2.98
SMILES: C=CCN(C)c1nc(Cl)ncc1Cl [Example V-33, 2,5-dichloro-N-methyl-N-(prop-2-en-1-yl)pyrimidine-4-amine]

logP [6]: 3.9[b]
SMILES: CCCCN(C)c1nc(Nc2cccc(SC)c2)ncc1Cl [Example 282]

logP [4]: 2.15[a]
SMILES: CC(=O)c1cccc(Nc2ncc(Cl)c(NC(C)(C)C)n2)c1 [Example 49]
